Species on record: Rattus norvegicus
Assay: DrugMatrix - Regimen: Daily Repeat
Assay type: toxicity, organism-based, Sprague-Dawley
Design: regimen Daily Repeat, gender Male, age 6-8 weeks
Settings: in vivo, po, route oral GAVAGE, […]; for SODIUM / TOTAL BILIRUBIN / TOTAL PROTEIN / URIC ACID / ALANINE AMINOTRANSFERASE / ALBUMIN / ALKALINE PHOSPHATASE / ASPARTATE AMINOTRANSFERASE / BLOOD UREA NITROGEN / CARBON DIOXIDE / CHLORIDE / CHOLESTEROL / CREATINE PHOSPHOKINASE / CREATININE / GLUCOSE / LACTATE DEHYDROGENASE / LIPASE / PHOSPHORUS / POTASSIUM: tissue Plasma; for ABSOLUTE BASOPHIL / ABSOLUTE EOSINOPHIL / ABSOLUTE LYMPHOCYTE / ABSOLUTE MONOCYTE / ABSOLUTE SEGMENTED NEUTROPHIL / BASOPHIL / EOSINOPHIL / ERYTHROCYTE COUNT / HEMATOCRIT / HEMOGLOBIN / LEUKOCYTE COUNT / LYMPHOCYTE / MEAN CORPUSCULAR HEMOGLOBIN / MEAN CORPUSCULAR HEMOGLOBIN CONCENTRATION / MEAN CORPUSCULAR VOLUME / MONOCYTE / NEUTROPHIL / NUCLEATED RED BLOOD CELLS / PLATELET COUNT: tissue Blood
[1] = 12 mg/kg, 72 h, dose level M1, time 3 day
[2] = 12 mg/kg, 120 h, dose level M1, time 5 day
[3] = 75 mg/kg, 72 h, dose level M2, time 3 day
[4] = 75 mg/kg, 120 h, dose level M2, time 5 day

`C#C[C@]1(O)CC[C@H]2[C@@H]3CCC4=CC(=O)CC[C@@H]4[C@H]3CC[C@@]21C` [NORETHINDRONE] was tested, and the SODIUM [1] was 144.57 MEQ/L, the “TOTAL BILIRUBIN” value [1] was 0.1 mg/dL and the “TOTAL PROTEIN” value [1] was 6.07 G/DL. For the same compound, the “URIC ACID” value [1] was 1 mg/dL, the “ABSOLUTE BASOPHIL” value [2] was 0 CELLS/uL and the “ABSOLUTE EOSINOPHIL” value [2] was 35 CELLS/uL. For the same compound, the “ABSOLUTE LYMPHOCYTE” value [2] was 6197.67 CELLS/uL, the “ABSOLUTE MONOCYTE” value [2] was 151.67 CELLS/uL and the “ABSOLUTE SEGMENTED NEUTROPHIL” value [2] was 315.67 CELLS/uL. The BASOPHIL [2] was 0%, the EOSINOPHIL [2] was 0.67% and the “ERYTHROCYTE COUNT” value [2] was 6.19 x10E6/uL. The HEMATOCRIT [2] was 37.27%, the HEMOGLOBIN [2] was 14.27 G/DL and the “LEUKOCYTE COUNT” value [2] was 6.7 x10E3/uL. For the same compound, the LYMPHOCYTE [2] was 92.67%, the “MEAN CORPUSCULAR HEMOGLOBIN” value [2] was 23.1 pg and the “MEAN CORPUSCULAR HEMOGLOBIN CONCENTRATION” value [2] was 38.3 G/DL. For the same compound, the “MEAN CORPUSCULAR VOLUME” value [2] was 60.33 fL, the MONOCYTE [2] was 2% and the NEUTROPHIL [2] was 4.67%. For the same compound, the “NUCLEATED RED BLOOD CELLS” value [2] was 0 /100WBC, the “PLATELET COUNT” value [2] was 1179.67 x10E3/uL and the “ALANINE AMINOTRANSFERASE” value [2] was 68.33 u/L. For the same compound, the ALBUMIN [2] was 4.67 G/DL, the “ALKALINE PHOSPHATASE” value [2] was 474.33 u/L and the “ASPARTATE AMINOTRANSFERASE” value [2] was 95.67 u/L. The “BLOOD UREA NITROGEN” value [2] was 10 mg/dL, the “CARBON DIOXIDE” value [2] was 25.67 mmol/L and the CHLORIDE [2] was 106.67 MEQ/L. The CHOLESTEROL [2] was 26 mg/dL, the “CREATINE PHOSPHOKINASE” value [2] was 277.33 u/L and the CREATININE [2] was 0.25 mg/dL. For the same compound, the GLUCOSE [2] was 177.33 mg/dL, the “LACTATE DEHYDROGENASE” value [2] was 205 u/L and the LIPASE [2] was 8 u/L. The PHOSPHORUS [2] was 12.13 mg/dL, the POTASSIUM [2] was 5.86 MEQ/L and the SODIUM [2] was 149.4 MEQ/L. For the same compound, the “TOTAL BILIRUBIN” value [2] was 0.1 mg/dL, the “TOTAL PROTEIN” value [2] was 6.73 G/DL and the “URIC ACID” value [2] was 1.83 mg/dL. The “ABSOLUTE BASOPHIL” value [3] was 0 CELLS/uL, the “ABSOLUTE EOSINOPHIL” value [3] was 0 CELLS/uL and the “ABSOLUTE LYMPHOCYTE” value [3] was 4761.67 CELLS/uL. For the same compound, the “ABSOLUTE MONOCYTE” value [3] was 38.67 CELLS/uL, the “ABSOLUTE SEGMENTED NEUTROPHIL” value [3] was 433 CELLS/uL and the BASOPHIL [3] was 0%. The EOSINOPHIL [3] was 0%, the “ERYTHROCYTE COUNT” value [3] was 5.41 x10E6/uL and the HEMATOCRIT [3] was 33.4%. The HEMOGLOBIN [3] was 12.87 G/DL, the “LEUKOCYTE COUNT” value [3] was 5.23 x10E3/uL and the LYMPHOCYTE [3] was 91%. For the same compound, the “MEAN CORPUSCULAR HEMOGLOBIN” value [3] was 23.77 pg, the “MEAN CORPUSCULAR HEMOGLOBIN CONCENTRATION” value [3] was 38.53 G/DL and the “MEAN CORPUSCULAR VOLUME” value [3] was 61.77 fL. For the same compound, the MONOCYTE [3] was 0.67%, the NEUTROPHIL [3] was 8.33% and the “NUCLEATED RED BLOOD CELLS” value [3] was 0 /100WBC. The “PLATELET COUNT” value [3] was 1166.67 x10E3/uL, the “ALANINE AMINOTRANSFERASE” value [3] was 57 u/L and the ALBUMIN [3] was 4.57 G/DL. The “ALKALINE PHOSPHATASE” value [3] was 692 u/L, the “ASPARTATE AMINOTRANSFERASE” value [3] was 76.67 u/L and the “BLOOD UREA NITROGEN” value [3] was 7.67 mg/dL. The “CARBON DIOXIDE” value [3] was 30.67 mmol/L, the CHLORIDE [3] was 104 MEQ/L and the CHOLESTEROL [3] was 29 mg/dL. For the same compound, the “CREATINE PHOSPHOKINASE” value [3] was 225 u/L, the CREATININE [3] was 0.14 mg/dL and the GLUCOSE [3] was 135.67 mg/dL. The “LACTATE DEHYDROGENASE” value [3] was 89 u/L, the LIPASE [3] was 8 u/L and the PHOSPHORUS [3] was 10.6 mg/dL. For the same compound, the POTASSIUM [3] was 5.59 MEQ/L, the SODIUM [3] was 145.07 MEQ/L and the “TOTAL BILIRUBIN” value [3] was 0.17 mg/dL. For the same compound, the “TOTAL PROTEIN” value [3] was 6.37 G/DL, the “URIC ACID” value [3] was 0.63 mg/dL and the “ABSOLUTE BASOPHIL” value [4] was 0 CELLS/uL. For the same compound, the “ABSOLUTE EOSINOPHIL” value [4] was 0 CELLS/uL, the “ABSOLUTE LYMPHOCYTE” value [4] was 9250.67 CELLS/uL and the “ABSOLUTE MONOCYTE” value [4] was 86 CELLS/uL. The “ABSOLUTE SEGMENTED NEUTROPHIL” value [4] was 330 CELLS/uL, the BASOPHIL [4] was 0% and the EOSINOPHIL [4] was 0%. The “ERYTHROCYTE COUNT” value [4] was 6.52 x10E6/uL, the HEMATOCRIT [4] was 38.67% and the HEMOGLOBIN [4] was 14.53 G/DL. The “LEUKOCYTE COUNT” value [4] was 9.67 x10E3/uL, the LYMPHOCYTE [4] was 95.33% and the “MEAN CORPUSCULAR HEMOGLOBIN” value [4] was 22.3 pg. The “MEAN CORPUSCULAR HEMOGLOBIN CONCENTRATION” value [4] was 37.6 G/DL, the “MEAN CORPUSCULAR VOLUME” value [4] was 59.27 fL and the MONOCYTE [4] was 1%. For the same compound, the NEUTROPHIL [4] was 3.67%, the “NUCLEATED RED BLOOD CELLS” value [4] was 0 /100WBC and the “PLATELET COUNT” value [4] was 928.67 x10E3/uL. The “ALANINE AMINOTRANSFERASE” value [4] was 49 u/L, the ALBUMIN [4] was 5 G/DL and the “ALKALINE PHOSPHATASE” value [4] was 440.33 u/L. The “ASPARTATE AMINOTRANSFERASE” value [4] was 68.33 u/L, the “BLOOD UREA NITROGEN” value [4] was 7 mg/dL and the “CARBON DIOXIDE” value [4] was 27 mmol/L. The CHLORIDE [4] was 104.33 MEQ/L, the CHOLESTEROL [4] was 35 mg/dL and the “CREATINE PHOSPHOKINASE” value [4] was 233.67 u/L. For the same compound, the CREATININE [4] was 0.18 mg/dL, the GLUCOSE [4] was 155.67 mg/dL and the “LACTATE DEHYDROGENASE” value [4] was 123.33 u/L. It also gave an LIPASE [4] of 7.33 u/L, a PHOSPHORUS [4] of 11 mg/dL and a POTASSIUM [4] of 5.7 MEQ/L. The SODIUM [4] was 147.73 MEQ/L, the “TOTAL BILIRUBIN” value [4] was 0.13 mg/dL and the “TOTAL PROTEIN” value [4] was 7.03 G/DL. For the same compound, the “URIC ACID” value [4] was 1.5 mg/dL.

From ChEMBL document CHEMBL3885881, “DrugMatrix”
